Experimental data reported in PMC2113498 (The Journal of Cell Biology, 1985).

What was measured:
[1] = system: a-toxin binding to the receptor, extracted membranes; experiment: Inhibition of a-toxin labeling of membranes; design: species or system Torpedo californica; settings: 10 mM carbamylcholine added to the solutions of the toxin; Fig. 6H
mab 274D / AChR = experiment: Inhibition of binding of mab 274D to AChR by peptides; design: species or system Torpedo nobiliana; settings: ELISA; tested at concentrations exceeding 36 uM
mab 264E / AChR = experiment: Inhibition of binding of mab 264E to AChR by peptides; design: species or system Torpedo nobiliana; settings: ELISA; tested at concentrations exceeding 36 uM

Row | Molecule | labeling of a-toxin sites in presence of competitor [1] | inhibition of binding of mab 274D to AChR (mab 274D / AChR) | inhibition of binding of mab 264E to AChR (mab 264E / AChR)
1 | C[N+](C)(C)CCOC(N)=O.[Cl-] [carbamylcholine] | substantially reduced the labeling | – | –
2 | Ac-PFEGDPFDYSSDHPRG-OH [Delta-peptide 485-499] | – | failed to inhibit the binding of either mab | failed to inhibit the binding of either mab
